Two compounds from article PMC9176662, “Design, synthesis, molecular modeling and biological evaluation of novel Benzoxazole-Benzamide conjugates via a 2-Thioacetamido linker as potential anti-proliferative agents, VEGFR-2 inhibitors and apoptotic inducers” (Journal of Enzyme Inhibition and Medicinal Chemistry, 2022) can be followed below.

Structures are written as SMILES.

As a reminder, the IC50 is the concentration at which inhibition is half-maximal.

Common to all, as to format: cell-based, human
For one test, the system named is HCT-116 cells. In words: Annexin V-FITC/PI apoptosis assay, HCT-116. The note with it: for increase in total apoptosis compared to the control: HCT-116; for %Apoptosis %Early / %Apoptosis %Late / %Necrosis: HCT-116, 48 h incubation; for %Apoptosis %Early: control 1.1; for %Apoptosis %Late: control 1.57; for %Necrosis: control 1.85. The procedure:
2.4. Annexin V-FITC/PI apoptosis assay.
For this study, annexin V-FITC / PI apoptosis detection kit was used; HCT -116 and MCF-7 cells were stained with annexin V fluorescein isothiocyanate (FITC) and propidium iodide (PI) counter-stained.1 x 10^5 HCT-116 cells were 48 h incubated with compound 1 or 11, trypsinized, washed with phosphate-buffered saline (PBS), stained in the dark at 37 °C for 15 min utes.
Finally, the cells analyzed with a cytometer of FACS Caliber flow.

In test [1] the test system is MCF-7 cells. The test is described as follows: Cell cycle analysis by DNA flow cytometry, MCF-7. The note with it: MCF7, 24 h, compound at its IC50 (supplement: 10 μM); for %Pre-G1: control 3.41; for %G2-M: control 16.53; for %S: control 28.33; for %G0-G1: control 55.14. The procedure: It is clearly known that generally the cytotoxic agents exert their anti-proliferative effect via cell cycle arrest at a specific phase. In the present study, due to the excellent in-vitro anti-proliferative activity of conjugates 1 and 11 against both HCT-116 and MCF-7 cancer cell lines as well as their excellent VEGFR-2 inhibitory activities, cell cycle analysis have been carried out for both compounds. […]
2.3. Cell cycle analysis.
HCT-116 and MCF-7 cells were seeded at concentrations of 1 x 10^5 cells per well in a 6-well plate, and then incubated for 24 h. The cells were treated for 24 h with vehicles (0.1 percent DMSO) or 10 μM of compounds 1 or 11. Using ice-cold, 70 percent ethanol at 4 °C, cells were harvested and fixed for 12 h. Ethanol was removed, and the cells were washed by cold PBS.
Then, the cells were incubated in 0.5 mL of PBS containing 1 mg/mL Ranse for 30 min at 37 °C.
In the dark, the cells were stained with propidium iodide for 30 min. Flow cytometer was then used to detect contents of DNA [63]. […]
In general terms: A flow cytometer gives signals particle by particle.

In test [2] the test system is MCF-7 cells. In words: Anti-proliferative activity, SRB assay, MCF-7. The note with it: for IC50: SRB assay, 72 h exposure, mean ± SD of three separate experiments; for MCF-7 SI (selectivity index): ratio of IC50 for normal cells (WI-38) to IC50 for MCF-7. An excerpt: Several of these derivatives were reported as acting as competitive inhibitors of different tyrosine kinases, with potent cytotoxic activity against various cell lines[58]^,[59]. […] Thus, in this study a novel series of benzoxazole-benzamide conjugates was initially evaluated for their potential anti-cancer activity against colon cancer cell line (HCT-116), breast cancer cell line (MCF-7) and normal human fibroblasts (WI-38), using the Sulforhodamine B colorimetric (SRB) assay.
2.1. Anti-proliferative activity against HCT-116 and MCF-7 human cancer cells lines.
The sulforhodamine B (SRB) assays were performed according to Skehan et al..
Briefly, exponentially growing cells were trypsinized, counted and seeded at the appropriate densities (5000 cells/100 μL/ well) into 96-well microtiter plates. Cells were incubated in a humidified atmosphere at 37 °C for 24 h. Then, the cells were exposed to the tested compounds at the desired concentrations (0.01, 0.1, 1, 10, and 100 μM) or to 1% dimethyl sulfoxide (DMSO) for 72 h. At the end of the treatment period, the media were removed, and the cells were fixed with 10% trichloroacetic acid at 4 °C for 1 h. Following, the cells were washed with tap water four times and incubated with SRB 0.4% for 30 min. Excess dye was removed by washing repeatedly with 1% (vol/vol) acetic acid. The protein-bound dye was dissolved in 10 mM Tris base solution for (optical density) OD determination at 510 nm using a Spectra Max plus Microplate Reader (Molecular Devices, CA). Cell viability was expressed relative to the untreated control cells. […]
Background: In SRB staining, fixed cells bind dye roughly in proportion to their protein.

In the case of `O=C(CSc1nc2ccccc2o1)Nc1ccc(C(=O)NC2CCCCC2)cc1` [Compound 1], in the test on HCT-116 cells, the “increase in total apoptosis compared to the control” value was “approximately 3.4 fold”, the “%Apoptosis %Early” value is 4.86%, the “%Apoptosis %Late” value was determined as 8.95% and the “%Necrosis” value came to 1.55%. Besides, in the test on MCF-7 cells [1], the “%Pre-G1” value amounted to 19.78%, the “%G2-M” value was determined as 29.62%, the “%S” value is 29.72% and the “%G0-G1” value is given as 40.66%. Besides, the IC50 in the test with MCF-7 cells [2] (Homo sapiens, MCF7, 72 h) is 7.8 ± 0.015 µM. In addition, in the test on MCF-7 cells [2], the IC50 was determined as 7.2 ± 0.01 µM and the “MCF-7 SI (selectivity index)” value is 5.8.

For `O=C(CSc1nc2cc(Cl)ccc2o1)Nc1ccc(C(=O)Nc2ccc(Cl)cc2)cc1` [Compound 11], in the test with HCT-116 cells, the “increase in total apoptosis compared to the control” value was around 3.9 fold, the “%Apoptosis %Early” value is 6.01%, the “%Apoptosis %Late” value is 9.62% and the “%Necrosis” value is reported as 1.78%. Moreover, in the test on MCF-7 cells [1], the “%Pre-G1” value is given as 16.93%, the “%G2-M” value worked out at 25.24%, the “%S” value came to 30.92% and the “%G0-G1” value came out at 43.84%. The compound further returned a half-inhibitory concentration (IC50) with MCF-7 cells [2] (Homo sapiens, MCF7, 72 h) of 16.6 ± 0.013 µM. Moreover, the “MCF-7 SI (selectivity index)” value in the test on MCF-7 cells [2] is 6.2.
